Data: patent publication US4234691A (Yamasa Shoyu Kabushiki Kaisha, priority 1978, dated 1980)

B1: L-lysine α-oxidase (Trichoderma viride) (protein)
chain: RAEEELPPRKVCIVGAGVSGLYIAMILDDLKIPNLTYDIFESSSRTGGRLYTHHFTDAKHDYYDIGAMRYPDIPSMKRTFNLFKRTGMPLIKYYLDGENTPQLYNNHFFAKGVVDPYMVSVANGGTVPDDVVDSVGEKLQQAFGYYKEKLAEDFDKGFDELMLVDDMTTREYLKRGGPKGEAPKYDFFAIQWMETQNTGTNLFDQAFSESVIDSFDFDNPTKPEWYCIEGGTSLLVDAMKETLVHKVQNNKRVEAISIDLDAPDDGNMSVKIGGKDYSGYSTVFNTTALGCLDRMDLRGLNLHPTQADAIRCLHYDNSTKVALKFSYPWWIKDCGITCGGAASTDLPLRTCVYPSYNLGDTGEAVLLASYTWSQDATRIGSLVKDAPPQPPKEDELVELILQNLARLHAEHMTYEKIKEAYTGVYHAYCWANDPNVGGAFALFGPGQFSNLYPYLMRPAAGGKFHIVGEASSVHHAWIIGSLESAYTAVYQFLYKYKMWDYLRLLLERWQYGLQELETGKHGTAHLQFILGSLPKEYQVKI
notes: mature processed form

What follows are molecules tested against T1, L-lysine α-oxidase (Trichoderma viride, UniProt A0A0G4DCU0) (assay: Substrate specificity, relative enzyme activity by oxygen-electrode method). Conditions: purified enzyme.
T1 construct: mature processed form
T1 sequence (A0A0G4DCU0 77-617): B1 chain
Type: biochemical
Method: A variety of substrates listed in the following table were subjected to the action of the purified enzyme of the present invention, and the relative enzyme activities thereof were determined according to the oxygen-electrode method.
The activity of the present enzyme was measured in accordance with Soda's method (Analytical Biochemistry Vol. 25, p. 228, 1968) in the following manner. A reaction mixture consisting of 0.7 ml of 0.1 M potassium phosphate buffer (pH 8.0), 0.1 ml of catalase (750 U/ml), 0.1 ml of 0.1 M L-lysine solution and 0.1 ml of the present enzyme solution was incubated at 37° C. for 20 minutes with gentle shaking. After the incubation the reaction was terminated by the addition of 0.1 ml of 25% trichloroacetic acid. To the resulting reaction mixture were added 1.9 ml of 1 M acetate buffer (pH 5.0) and 0.8 ml of 0.1% 3-methyl-2-benzothiazolone hydrazone hydrochloride solution. The mixture was further incubated at 30° C. for 30 minutes and then allowed to cool to room temperature, after which measurement of optical density at 318 nm was carried out. The formed α-keto-ε -aminocaproic acid thus formed was determined from the resulting calibration curve. One unit of the enzyme was defined as the quantity of the enzyme catalyzing the formation of 1 μmol of α-keto-ε-aminocaproic acid at 37° C. per minute. The relative activity of the enzyme was also assayed by manometric and polarographic determination of the oxygen consumption.
N[C@@H](Cc1c[nH]cn1)C(=O)O [L-Histidine] was tested, and the “Activity of the enzyme to the amino acid (in words)” value (shortened to “Activity of the enzyme”) was “some activities”.
N[C@@H](Cc1ccccc1)C(=O)O [L-Phenylalanine] was tested, and the “Activity of the enzyme” value was “some activities”.
N=C(N)NCCC[C@H](N)C(=O)O [L-Arginine] was tested, and the “Activity of the enzyme” value was “some activities”.
With NCCC[C@H](N)C(=O)O [L-Ornithine] the “Activity of the enzyme” value was “some activities”.

Same assay, conditions: substrate 10 mM, purified enzyme, L-Lysine = 100
For N[C@@H](Cc1c[nH]cn1)C(=O)O [L-Histidine], the “Relative activity (%)” value was 3.8%.
With N[C@@H](Cc1ccccc1)C(=O)O [L-Phenylalanine] the “Relative activity (%)” value was 8.3%.
In the case of N=C(N)NCCC[C@H](N)C(=O)O [L-Arginine], the “Relative activity (%)” value is reported as 6.1%.
With CC[C@H](C)[C@H](N)C(=O)O [L-Isoleucine] the “Relative activity (%)” value was under 0.5%.
For NCCCC[C@H](N)C(=O)NO [L-Lysine hydroxamate], the “Relative activity (%)” value was 62.1%.
For N[C@@H](CCC(=O)O)C(=O)O [L-Glutamic acid], the “Relative activity (%)” value was under 0.5%.
In the case of CCOC(=O)[C@@H](N)CCCCN [L-Lysine ethyl ester], the “Relative activity (%)” value is reported as 83.3%.
With NCCC(N)C(=O)O (centres unmarked) [2,4-Diaminobutyric acid] the “Relative activity (%)” value was under 0.5%.
With CC(N)CSC[C@H](N)C(=O)O (stereo partly drawn) [S-(β-Aminopropyl-L-cysteine] the “Relative activity (%)” value was 34.8%.
In the case of N[C@@H](CC(=O)O)C(=O)O [L-Aspartic acid], the “Relative activity (%)” value is reported as under 0.5%.
For N[C@@H](Cc1c[nH]c2ccccc12)C(=O)O [L-Tryptophan], the “Relative activity (%)” value was under 0.5%.
With C[C@H](N)C(=O)O [L-Alanine] the “Relative activity (%)” value was under 0.5%.
NCCCCC(=O)O [δ-Aminovareric acid] was tested, and the “Relative activity (%)” value was under 0.5%.
In the case of NCCCC[C@H](N)C(=O)O [L-Lysine], the “Relative activity (%)” value is reported as 100.0%.
In the case of CSCC[C@H](N)C(=O)O [L-Methionine], the “Relative activity (%)” value is reported as under 0.5%.
N[C@@H](CO)C(=O)O [L-Serine] was tested, and the “Relative activity (%)” value was under 0.5%.
For CC(=O)NCCCC[C@H](N)C(=O)O [ε-N-Acetyl-L-lysine], the “Relative activity (%)” value was under 0.5%.
With NCC(O)CC[C@H](N)C(=O)O (some centres unmarked) [δ-Hydroxy-lysine] the “Relative activity (%)” value was 37.1%.
In the case of NCCCCCC(N)C(=O)O (racemic) [D,L-Homolysine], the “Relative activity (%)” value is reported as 31.1%.
For NC(=O)NCCCC[C@H](N)C(=O)O [Homocitrulline], the “Relative activity (%)” value was under 0.5%.
In the case of NCCSC[C@H](N)C(=O)O [S-(β-Aminoethyl)-L-cysteine], the “Relative activity (%)” value is reported as 9.8%.
C[C@@H](O)[C@H](N)C(=O)O [L-Threonine] was tested, and the “Relative activity (%)” value was under 0.5%.
With NCC(N)C(=O)O (stereo not drawn) [α,β-Diaminopropionic acid] the “Relative activity (%)” value was under 0.5%.
NCC(=O)O [L-Glycine] was tested, and the “Relative activity (%)” value was under 0.5%.
For N[C@@H](CSCCc1ccncc1)C(=O)O [S-(β-4-Pyridylethyl)-L-cysteine], the “Relative activity (%)” value was 2.7%.
For NCCCC[C@@H](N)C(=O)O [D-Lysine], the “Relative activity (%)” value was under 0.5%.
In the case of NC(=O)C[C@H](N)C(=O)O [L-Asparagine], the “Relative activity (%)” value is reported as under 0.5%.
For NCCC[C@H](N)C(=O)O [L-Ornithine], the “Relative activity (%)” value was 18.2%.
In the case of NCCCCCC(=O)O [ε-Aminocaproic acid], the “Relative activity (%)” value is reported as under 0.5%.
With NC(=O)CC[C@H](N)C(=O)O [L-Glutamine] the “Relative activity (%)” value was under 0.5%.
In the case of N[C@@H](CS)C(=O)O [L-Cysteine], the “Relative activity (%)” value is reported as under 0.5%.
In the case of NCCCCCN [Cadaverine], the “Relative activity (%)” value is reported as under 0.5%.
For O=C(O)[C@@H]1C[C@@H](O)CN1 [L-Hydroxyproline], the “Relative activity (%)” value was under 0.5%.
With O=C(O)[C@@H]1CCCN1 [L-Proline] the “Relative activity (%)” value was under 0.5%.
For NCCCCN [Putrescine], the “Relative activity (%)” value was under 0.5%.
With CC(C)[C@H](N)C(=O)O [L-Valine] the “Relative activity (%)” value was under 0.5%.
NC(=O)NCCC[C@H](N)C(=O)O [L-Citrulline] was tested, and the “Relative activity (%)” value was under 0.5%.
With CC(C)C[C@H](N)C(=O)O [L-Leucine] the “Relative activity (%)” value was under 0.5%.

The molecules below were run against T1, L-lysine α-oxidase (assay: Enzyme activity in the presence of metallic ions and additives (inhibition, activation, stabilization)). Conditions: not given.
Type: biochemical
Method: The enzyme activity was measured in the presence of various metallic ions and various additives. The activator has not been found. The enzyme was stabilized by sodium chloride, potassium chloride, phosphates and the like.
For [Cl-].[K+] [potassium chloride], the “Stabilization of the enzyme (in words)” value was “stabilized”.
[Cl-].[Na+] [sodium chloride] was tested, and the “Stabilization of the enzyme (in words)” value was “stabilized”.
With N[C@@H](CCC(=O)N[C@@H](CS)C(=O)NCC(=O)O)C(=O)O [Glutathione] the “Relative activity (%) in presence of inhibitors” value was 103.5%.
phosphates was tested, and the “Stabilization of the enzyme (in words)” value was “stabilized”.
O=C(O)CN(CCN(CC(=O)O)CC(=O)O)CC(=O)O [EDTA, Ethylenediaminetetraacetic acid] was tested, and the “Relative activity (%) in presence of inhibitors” value was 93.8%.

Same assay, conditions: enzyme activity measured in presence of the additive
In the case of [Cl][Hg][Cl] [Mercuric chloride], the “Effect on enzyme activity (in words)” value is reported as “inhibited”.
For O=C(O)c1cc[c]([Hg][Cl])cc1 [PCMB, para-Chloromercuribenzoic acid], the “Effect on enzyme activity (in words)” value was “inhibited”.
[Cu+2] [Cu] was tested, and the “Effect on enzyme activity (in words)” value was “inhibited”.

Same assay, conditions: inhibitor concentration not given
With CCN1C(=O)C=CC1=O [N-Ethylmaleimide] the “Relative activity (%) in presence of inhibitors” value was 108.7%.
[Cl][Hg][Cl] [Mercuric chloride] was tested, and the “Relative activity (%) in presence of inhibitors” value was 19.2%.
With O=S(=O)(O)c1cc(O)c(O)c(S(=O)(=O)O)c1 [Tiron] the “Relative activity (%) in presence of inhibitors” value was 96.5%.
With O=C(O)c1cc[c]([Hg][Cl])cc1 [PCMB, para-Chloromercuribenzoic acid] the “Relative activity (%) in presence of inhibitors” value was 42.9%.
N[C@@H](CS)C(=O)O [Cysteine] was tested, and the “Relative activity (%) in presence of inhibitors” value was 100.3%.

Same assay, conditions: metallic ions 1mM
With [Mg+2] [Mg] the “Relative activity (%) in presence of metallic ions” value was 99.6%.
With [Ba+2] [Ba] the “Relative activity (%) in presence of metallic ions” value was 100.0%.
For [Mn+2] [Mn], the “Relative activity (%) in presence of metallic ions” value was 97.1%.
In the case of [Ca+2] [Ca], the “Relative activity (%) in presence of metallic ions” value is reported as 102.5%.
For [K+] [K], the “Relative activity (%) in presence of metallic ions” value was 100.0%.
With [Co+2] [Co] the “Relative activity (%) in presence of metallic ions” value was 91.6%.
With [Li+] [Li] the “Relative activity (%) in presence of metallic ions” value was 98.4%.
[Cu+2] [Cu] was tested, and the “Relative activity (%) in presence of metallic ions” value was 78.5%.
[Zn+2] [Zn] was tested, and the “Relative activity (%) in presence of metallic ions” value was 92.7%.

Each molecule was assayed on L5178 Y mouse leukemic cells (assay: not given). Conditions: L5178Y cells, 10^5 cells/ml, 37° C., 48 hours.
Method: In this experiment, the antitumor activity in vitro was determined by measuring the proliferation-inhibition activity against the cultured L5178 Y mouse leukemic cells. More specifically, 0.1 ml of the sample diluted with a phosphate-buffered saline (PBS) was added to 0.9 ml of the cultured L5178Y cell suspension (10^5 cells/ml) with the logarithmic growth phase. The mixture was incubated, at 37° C. for 48 hours in a carbon dioxide incubator, and then the number of the cells was measured by means of a microcell counter.
With L-lysine α-oxidase the “Concentration giving complete inhibition of proliferation” value was 3.3 mU/ml.

Each molecule was assayed on NCCC[C@H](N)C(=O)O (assay: purified protein, by the assay type). Conditions: other: purified enzyme of Example 1.
Work on B1 yielded a Km of 440 µM.

These molecules were tested on NCCCC[C@H](N)C(=O)O (assay: Km values of the enzyme for amino acids). Conditions: other: purified enzyme of Example 1.
Type: biochemical, Trichoderma viride
B1 gave a Km of 40 µM.

These molecules were tested on N[C@@H](Cc1ccccc1)C(=O)O (assay: Km values of the enzyme for amino acids). Conditions: other: purified enzyme of Example 1.
Type: biochemical, Trichoderma viride
Work on B1 yielded a Km of 14000 µM.
